Test system: latent HIV in J-Lat A1 cells
Assay: HIV latency reactivation in J-Lat A1 cells (GFP expression by flow cytometry)
Format: cell-based
Description: FIG. 1: PEP005 induces reactivation of HIV latency in vitro. J-Lat A1 cells were exposed to different concentrations of PEP005 and virus reactivation was measured by GFP expression using flow cytometry. Cell viability was determined by Live/Dead dye staining. (A) Chemical Structure of PEP005. […] (D) PEP005 potently reactivates latent HIV in cell lines compared with other LRAs. J-Lat A1 cells were treated with 10 nM PEP005, 500 nM SAHA, 2 μM JQ1, 2 μM GSK343, 10 ng/ml TNF, 2 μM Prostratin, or 5 ng/ml PMA for 24 hours and the percentage of GFP expression was evaluated using flow cytometry. *, p<0.05; **, p<0.01.
FIG. 2: PEP005 synergizes with other latency reversing agents in reactivating latent HIV. (A) J-Lat A1 cells were treated with 5 ng/ml PMA, 6 nM PEP005, 500 nM SAHA, 2 μM JQ1, 2 μM GSK343, or 10 μM Prostratin alone or in combination with 6 nM PEP005 for 24 hours and the percentage of GFP expressing cells was determined using flow cytometry. **, p<0.01; *, p<0.05 compared with control treatment; **, p<0.01; *, p<0.05 compared with PEP005 treatment alone. (B) The U1 cells were treated with 5 ng/ml PMA, 6 nM PEP005, 500 nM SAHA, 2 μM JQ1, or 2 μM GSK343, alone or in combination with 6 nM PEP005 for 24 hours and the HIV transcription was evaluated using RT-qPCR. Numbers indicate fold-increase over the control. **, p<0.01; *, p<0.05 compared with control treatment; **, p<0.01; *, p<0.05 compared with PEP005 treatment alone. […] The Bliss independence model was utilized for calculation of synergy for LRA combinations. Dotted horizontal line signifies pure additive effect (Δfaxy=0). Synergy is defined as Δfaxy>0 while Δfaxy<0 indicates antagonism. Statistical significance was determined using a one tailed ratio t-test comparing predicted and observed drug combination effects. *p<0.05; **p<0.01.
J-Lat A1 cells (harboring a single copy of latent HIV LTR and one copy of green fluorescent protein gene under the HIV LTR control) or U1 cells (harboring two latent HIV genomes with defective Tat gene) were cultured in RPMI1640 medium with 10% fetal bovine serum (FBS) and 1% Pen/strep in a 37° C. incubator containing 5% CO2 [24,31]. Both of the cell lines were obtained from NIH AIDS Reagent Program. For reactivation of HIV LTR, cells were treated with PMA (Sigma), JQ1 (Biovision), Prostatin (Sigma), SAHA (Santa Cruz), TNF-α (BD), GSK343 (Sigma), or PEP005 (Tocris Bioscience) for 24 h. HIV reactivation was quantified by GFP expression using flow cytometry and the data were analyzed using FlowJo Software for J-Lat A1 cells, or by quantitative RT-PCR (RT-qPCR) for J-Lat A1 and U1 cells. Cell viability was evaluated using Live/Dead dye (Life Technologies) by flow cytometry. So far, there is not a single in vitro cell culture model available that captures all the features of HIV latency. However, PKC agonists seem to reactivate latent HIV in all the cell culture models of viral latency. Similar to other J-Lat cell lines, the J-Lat A1 clone has been widely used by researchers for HIV latency studies. The T-cell-derived J-Lat A1 cells harbor one copy of a construct containing a Tat and a green fluorescent protein (GFP) gene framed by the 5′ and 3′ HIV LTR [32]. The J-Lat A1 cells also contain the TAR loop located within the R region of HIV LTR (nt +1 to +60), which provides an opportunity for Tat-TAR interactions for the modulation of transcription and transcriptional elongation. […]

Q: Which “concentration at which effect on HIV expression was evident” value does the source give for `C/C=C(/C)C(=O)O[C@H]1C(C)=C[C@]23C(=O)[C@@H](C=C(CO)[C@@H](O)[C@]12O)[C@H]1[C@@H](C[C@H]3C)C1(C)C` [PEP005, (1aR,2S,5R,5aS,6S,8aS,9R,10aR)-5,5a-Dihydroxy-4-(hydroxymethyl)-1,1,7,9-tetramethyl-11-oxo-1a,2,5,5a,6,9,10,10a-octahydro-1H-2,8a-methanocyclopenta[a]cyclpropa[e][10]annulen-6-yl (2Z)-2-methylbut-2-enoate] here?
A: The value was 2 nM.

Q: What about the “HIV reactivation compared to other compounds known to reactivate HIV” value (10 nM PEP005 vs 500 nM SAHA, 2 μM JQ1, 2 μM GSK343, 2 μM Prostratin, 5 ng/ml PMA, 24 h) of the same compound?
A: Its value is “more potent than SAHA”.

Q: What about the “increase in the reactivation of HIV latency compared to untreated controls” value (20 nM PEP005) of the same compound?
A: Its value is 7 fold.

Q: And the “induction of HIV expression, agent alone” value (GFP, 24 h, PEP005 2-40 nM, GSK343 2 μM)?
A: Its value is “dose-dependent manner”.

— US10376486B2, “Compositions and methods for reactivating latent viral infections” (priority 2014, dated 2019)
